Here are results for 4 compounds from patent US9493833B1, “Methods for preventing induced synthesis of proteasomes in human cells” (THE REGENTS OF THE UNIVERSITY OF CALIFORNIA, priority 2009, dated 2016).

The term inhibition denotes the drop in the measured response relative to a control, in per cent.

Molecules are shown by their SMILES. Where a SMILES comes first, the peptide text is derived from it. The star is where a group is joined. Cbz = O=C(OCc1ccccc1)*; CH2F = FC*

Experiment [1] concerns PSM genes (PSMA7, PSMB4, PSMB7, PSMC1, PSMC4, PSMD1, PSMD12). Nature of the experiment: mRNA levels of representative PSM genes by quantitative RT-PCR in LNCaP and HT-29 cells treated with proteasome inhibitors or MLN4924. The format is cell-based, human. The following applies: 10 hrs, normalized to GAPDH, DMSO set to 1. The procedure:
(§1) The human prostate cancer LNCaP and colon cancer HT29 cell lines were incubated with different proteasome inhibitors (MG132, YU101, and bortezomib) or the Nedd8 pathway inhibitor MLN4924 (Soucy et al., 2009, Nature, 458, 732-736). Prostate cancer LNCaP and colon cancer HT-29 cells were treated with the indicated concentrations of proteasome inhibitors (MG132, YU101, and Bortezomib) or the Nedd8 pathway inhibitor (MLN4924) for 10 hrs, and mRNA levels of representative PSM genes were analyzed by quantitative RT-PCR (FIGS. 1A-1C). The values were normalized to GAPDH and for each cell line the DMSO treated sample was set to 1. Error bars denote SD (n=3). […] MLN4924 works by inhibiting the Nedd8-activating enzyme, the result of which is the accumulation of cullin-RING ligase (CRL) substrates (Soucy et al., 2009).
(§2) RNA was isolated using the RNeasy kit (Qiagen). cDNA was prepared using the Superscript III first strand synthesis kit (Invitrogen) according to the manufacturer's recommendations. Quantitative PCR (qPCR) was performed using the SYBR GreenER supermix (Invitrogen).

In the next experiment the test system is PSMA4 ARE. The experiment is described as follows: 3×PSMA4-ARE-Luc / 3×PSMA4-mutARE-Luc luciferase assay in LNCaP cells. Format: cell-based, human. The procedure:
(§3) Sequence alignment of the genomic region close to the transcription start site (indicated by +1) of the PSMB6 gene in mouse and human. The putative ARE sequences and the start codon are marked as shown (FIG. 6). WT and Nrf1^−/− MEFs were transfected with the PSMB6-Luc construct and 24 hrs post-transfection, the cells were treated with the indicated concentration of MG132 for 12 hrs after which luciferase assays were performed as described herein (FIG. 7). Error bars denote SD (n=3). […] LNCaP cells were transiently transfected with the indicated reporter constructs along with either a vector control or Flag-Nrf1 expression construct. Forty-eight hours (hrs) after transfection, the cells were further incubated with the indicated concentration of MG132 for 12 hrs after which luciferase assays were performed as described herein (FIG. 9). Error bars denote SD (n=3).
(§4) Cells were transiently transfected with the firefly (promoter reporters) and renilla luciferase (pRL-TK; Promega) constructs along with effector plasmid as required. After harvesting the cells, luciferase assays were performed using the Dual Luciferase reporter assay system (E1910; Promega) according to the instructions from the manufacturer. The firefly luciferase activity was normalized to renilla luciferase activity for all experiments.

Experiment [2] relates to anti-oxidant response elements (8×AREs). Nature of the experiment: 8×ARE-SV40-Luc luciferase reporter assay in LNCaP cells. Format: cell-based, human. To be noted: MG132 alone versus untreated cells. The procedure: TSA and SAHA were assayed using a luciferase reporter construct. The luciferase reporter was driven by a promoter harboring multimerized anti-oxidant response elements (8×AREs) and was transfected into LNCaP cells.
LNCaP cells were subjected to treatment with one of MG132 (1 μM), TSA (1 μM), SAHA (5 μM), MG132 (1 μM)+TSA (1 μM), or MG132 (1 μM)+SAHA (1 μM) for 10 hrs and the RNA from these cells was used for quantitative RT-PCR to assess the mRNA levels of representative PSM genes (FIG. 5A). The values were normalized to GAPDH and the DMSO-treated sample was set to 1. A representative experiment performed in duplicates is shown. MDA-MB-231 cells were treated with different agents at the same concentrations as above (except MG132 which was used at 5 μM) for 48 hrs after which the cells were used for cell-titer glo assay to assess cell viability. Data from an experiment performed in quadruplicates is shown (FIG. 5B). LNCaP cells transfected with 8×ARE-SV40-Luc construct alone (control) or co-transfected with Flag-Nrf1 were further treated with different agents as indicated (FIG. 10). pRL-TK renilla luciferase expression construct was used as a transfection control for normalization. Sixteen hours later, the cells were harvested and used for Luciferase assay.
as §4
(In general: In a reporter assay the amount or activity of a reporter protein is the signal.)

Another experiment concerns murine PSMB6 promoter. The experiment is described as follows: PSMB6-Luc promoter-reporter luciferase assay in MEFs. The format is cell-based, mouse. To be noted: WT MEFs, MG132 12 hrs. The procedure: as §3, §4
Experiment [3] concerns the target T1, proteasome (chymotryptic site) (Homo sapiens, UniProt P20618+P28074).
T1 construct: endogenous in cells; host or cells: HT29 human colon cancer cells, treated intact; activity measured in freeze-thaw lysate
Nature of the experiment: Proteasome activity recovery assay in HT29 cells after drug wash-out. Format: cell-based. The following applies: HT-29, read-out: inhibition of the chymotryptic site. The procedure: (§5) Cells were frozen at different time points as indicated and were used for proteasome activity assays as described herein. For each time point, the results are normalized to DMSO-treated control in the case of hatched lines and to CHX-treated control in the case of solid lines. Error bars denote SD (n=3). […] The results were normalized to DMSO-treated control for each cell type. Error bars denote S.E.M. (n=2). […] The next day, the cells were treated with indicated concentrations of YU101 and the pan-caspase inhibitor Z-VAD-FMK, and further incubated for 72 hrs. The cell viability was then assessed using the CellTiter-Glo method (FIG. 12A). The results were normalized to DMSO-treated control which was set to 100% in each case. Error bars denote S.E.M. (n=2). […] The cell lysates were used for immunoblotting to detect the levels of Nrf1 (with the antibody raised against N-terminus) and cleaved caspase-3. β-actin protein levels were used as loading control. […] The cells were then washed with PBS thrice and allowed to recover in fresh medium. At definite time points, the cells were freeze-thawed in TE buffer (20 mM Tris pH 8, 5 mM EDTA) and subsequently used for measuring proteasome activity as described previously (Demo et al., 2007).

The test system of the next experiment is PSM genes. Nature of the experiment: mRNA levels of representative PSM genes by quantitative RT-PCR in MEFs (WT, Nrf1−/−, Nrf2−/−; retroviral transduction). Format: cell-based, mouse. The following applies: 10 hrs. The procedure:
Specifically, MEFs of different genotypes (WT, Nrf1^−/−, and Nrf2^−/−) were treated for 10 hrs with MG132 as indicated (FIG. 2A), and the cell lysates were used for immunoblotting to detect protein levels of Nrf1 (with the antibody raised against the N-terminus) and Nrf2. β-actin protein levels were used as loading control. RNA from MEFs under the same treatment conditions as above was used for quantitative RT-PCR to assess the mRNA levels of representative PSM genes (FIGS. 2B-2C), The values were normalized to GAPDH and the DMSO treated WT sample was set to 1. Error bars denote SD (n=3).
Nrf1^−/− MEFs were transduced with retrovirus expressing one of Flag-Nrf1, Flag-Nrf1-HA or vector control and 72 hrs later treated with MG132 for 10 hrs as indicated. The cell lysates were used for immunoblotting to detect the levels of exogenous Nrf1 by using tag-specific antibodies (FIG. 3A). β-actin protein levels were used as loading control. RNA from Nrf1^−/− MEFs under the same viral transduction and treatment conditions as above was used for quantitative RT-PCR to assess the mRNA levels of representative PSM genes (FIG. 3B). The values were normalized to GAPDH and the vector-transduced DMSO-treated sample was set to 1. Error bars denote SD (n=3).
WT and Nrf1^−/− MEFs were transduced with retrovirus expressing sh-Nrf1 or vector control and 72 hrs later treated with MG132 for 10 hrs as indicated. […] RNA from MEFs under the same viral transduction and treatment conditions as above was used for quantitative RT-PCR to assess the mRNA levels of representative PSM genes (FIG. 4B). […]
as §2

In the next experiment the test system is NQO1. The experiment is described as follows: NQO1 mRNA level by quantitative RT-PCR in LNCaP and HT-29 cells. The following applies: 10 hrs, same treatment conditions. The format is cell-based, human. The procedure:
as §1, §2

The next experiment deals with cleaved caspase-3. Nature of the experiment: Immunoblot of cleaved caspase-3 in MDA-MB-231 and U2OS cells. To be noted: Nrf1-depleted cells; YU101 48 hrs (MDA-MB-231) or 24 hrs (U2OS). The format is cell-based, human. The procedure:
(§6) HT29 cells were treated with either MG132 (2 μM), YU101 (100 nM) or Bortezomib (40 nM) for 1 hr after which the drugs were washed off and the cells were allowed to recover in the absence or presence of 50 μg/ml cycloheximide (CHX) (FIG. 11A). Cells were frozen at different time points as indicated and were used for proteasome activity assays as described herein. For each time point, the results are normalized to DMSO-treated control in the case of hatched lines and to CHX-treated control in the case of solid lines. Error bars denote SD (n=3). WT and Nrf1^−/− MEFs were treated with either MG132 (50 μM) or YU101 (300 nM) for an hour after which the drugs were washed off and proteasome activity was measured for cells collected at different time points as indicated (FIG. 11A). […] The results were normalized to DMSO-treated control for each cell type. Error bars denote S.E.M. (n=2). MDA-MB-231 and U2OS cells were transduced with retrovirus expressing either sh-Nrf1 or vector control, and 48 hrs later were seeded in to 96-well plates. The next day, the cells were treated with indicated concentrations of YU101 and the pan-caspase inhibitor Z-VAD-FMK, and further incubated for 72 hrs. The cell viability was then assessed using the CellTiter-Glo method (FIG. 12A). The results were normalized to DMSO-treated control which was set to 100% in each case. Error bars denote S.E.M. (n=2). […]
A general note: Immunoblotting shows a protein as a band on a membrane.

In the next experiment the target is T2, proteasome (Mus musculus, UniProt O09061+O55234).
T2 construct: endogenous in cells; host or cells: WT and Nrf1-/- mouse embryonic fibroblasts, immortalized with shRNA against p19ARF
The experiment is described as follows: Proteasome activity recovery assay in WT and Nrf1−/− MEFs. The format is cell-based. To be noted: YU101 300 nM 1 hr then wash-off, single-phase exponential curve fit. The procedure:
as §5

Experiment [4] deals with MDA-MB-231 and U2OS cells. Nature of the experiment: CellTiter-Glo cell viability with YU101, sh-Nrf1 and Z-VAD-FMK. Format: cell-based, human. To be noted: 72 hrs. The procedure:
as §6, with “MDA-MB-231 and U2OS cells were transduced with retrovirus expressing either sh-Nrf1 or vector control, and 48 hrs later were seeded in to 96-well plates. The next day, the cells were treated with indicated concentrations of YU101 and the pan-caspase inhibitor Z-VAD-FMK, and further incubated for 72 hrs.” left out, “12A).” for “12A). The results were normalized to DMSO-treated control which was set to 100% in each case. Error bars denote S.E.M. (n=2).”
Cells in 96-well plates were treated with different agents as required and cell viability was assessed using the Cell-Titer Glo kit (G7572; Promega) according to the protocol recommended by the manufacturer. By employing a luminescence read-out, this kit quantifies the level of ATP which is proportional to the number of viable cells.

Regarding `CC(C)C[C@@H](C=O)NC(=O)[C@H](CC(C)C)NC(=O)[C@H](CC(C)C)NC(=O)OCc1ccccc1` [MG132] (Cbz-Leu-Leu-Leu-aldehyde), in experiment [1], the “mRNA levels of PSM genes” value is given as “robustly induce mRNA levels of several PSM genes”. Besides, the “luciferase activation (3×PSMA4-ARE-Luc) in cells overexpressing Flag-Nrf1” value in the experiment with PSMA4 ARE (LNCaP with Flag-Nrf1, plus MG132) was “further enhanced”. Further, the “luciferase activity (3×PSMA4-mutARE-Luc, AREs mutated)” value with PSMA4 ARE (LNCaP, mutated AREs) is “neither MG132 nor overexpressed Flag-Nrf1 induced the synthetic promoter construct”. The “luciferase activity (3×PSMA4-ARE-Luc)” value with PSMA4 ARE (LNCaP, versus DMSO-treated / vector control, MG132 12 hrs) is listed as “an increase in luciferase activity was observed when compared to DMSO-treated control”. Also, in experiment [2], the “luciferase expression (8×ARE reporter)” value is given as “luciferase expression was increased compared to non-test (untreated) cells”. Further, the “luciferase activity (PSMB6 promoter-reporter)” value in the experiment on murine PSMB6 promoter is “dose dependent increase in luciferase activity”. In addition, in [3], the inhibition at 2 µM lay within 80 to 90%. For the same compound, the “mRNA levels of PSM genes after MG132” value is “severely blunted in their ability to upregulate PSM genes” in the experiment with PSM genes (Nrf1−/− MEFs), “induced mRNA levels of PSM genes” with PSM genes (Nrf2−/− MEFs) and “induced mRNA levels of PSM genes” in the experiment on PSM genes (WT MEFs).

`NS(=O)(=O)OC[C@@H]1C[C@@H](n2ccc3c(N[C@H]4CCc5ccccc54)ncnc32)C[C@@H]1O` [MLN4924]: the “mRNA levels of PSM genes” value in experiment [1] is “failed to appreciably induce the PSM genes”. Besides, the “NQO1 mRNA (Nrf2 target gene)” value in the experiment with NQO1 was “activation of its downstream target genes, as observed for NQO1”.

With `CC(=O)NC(CCc1ccccc1)C(=O)NC(CC(C)C)C(=O)NC(Cc1ccccc1)C(=O)NC(CC(C)C)C(=O)C1(C)CO1` (centres unmarked) [YU101], the “mRNA levels of PSM genes” value in experiment [1] is “robustly induce mRNA levels of several PSM genes”. In addition, the “level of cleaved caspase-3” value in the experiment with cleaved caspase-3 is recorded as “elicited an enhanced level of cleaved caspase-3”. Besides, the “time taken to recover half of the inhibited activity” value is 15.96 ± 5.49 h at proteasome (Nrf1−/− MEFs) and 6.92 ± 1.64 h on proteasome (WT MEFs).

For `COC(=O)C[C@H](NC(=O)[C@H](C)NC(=O)[C@@H](NC(=O)OCc1ccccc1)C(C)C)C(=O)CF` [Z-VAD-FMK] (Cbz-Val-Ala-Asp(OMe)-CH2F), the “effect of co-treatment on sensitization to YU101 killing” value in experiment [4] is listed as “this effect was blunted”.
